{
  "source": "patent US20100239685A1",
  "about": "“COMPOUND FOR TREATMENT OR PREVENTION OF PROSTATE-RELATED DISEASES AND PHARMACEUTICAL COMPOSITION OF COLON DELIVERY SYSTEM CONTAINING THE SAME” (priority 2006, published 2010)",
  "key": {"[1]": {"test": "Determination of partition coefficients (octanol / phosphate buffer pH 7.4)", "format": "physicochemical", "conditions": "sample 200 μg/mL; octanol/water; replicates 1-3", "description": "Octanol and phosphate buffer (pH 7.4) were saturated with a counter-solvent for 24 hours or more. A given amount of a naphthoquinone-based compound (compound 1 of Table 1 below) was dissolved in the thus-saturated octanol, mixed with triple-distilled water and stirred using a magnetic stirrer at 200 rpm for 13 hours or more. Samples were taken, filtered through a 0.45 μm RC Membrane filter and diluted with methanol. The diluted sample materials were analyzed by HPLC. A partition coefficient versus an amount of the compound 1 was determined."}, "[2]": {"conditions": "cited from earlier work"}, "[3]": {"test": "Intestinal absorption, single-pass intestinal perfusion", "format": "in vivo, rats", "description": "In order to determine intestinal absorption (%) of a naphthoquinone-based compound, a single-pass intestinal perfusion technique was carried out in internal organs of rats, including jejunum, ileum and large intestine. The steady-state intestinal effective permeability (Peff) can be expressed according to the following equation. Peff=[−Qin·ln (Cout/Cin)]/A Peff: Steady-state intestinal effective permeability (cm/s) Qin: Perfusion flow rate (0.4 mL/min) Cin, Cout: Inlet and fluid-transport-corrected outlet solution concentrations A: Mass transfer surface area within intestinal segment (2πrL), r, L: Radius and length of intestinal segment The radius (r) and length (L) of the jejunum, ileum and large intestine used in experiments are as follows: (r: jejunum, 0.21 cm; ileum, 0.22 cm; large intestine, 0.23 cm, and L: 10 cm) The steady-state was confirmed by the ratio of the outlet to inlet concentrations (Cout/Cin) versus time. The steady-state is established when the Cout/Cin ratio of the naphthoquinone-based compound is maintained at a constant value (n=3, error bars with respect to S.D.). Residual amounts of the naphthoquinone-based compound in the above three intestinal organs were measured at different time points. The outlet steady-state concentration of the compound under perfusion was calculated. The results thus obtained are given in Table 4 and FIG. 2, respectively. The effective permeability was measured at 4 points of each intestinal tissue."}},
  "note": "Where “and” joins values, the source holds several entries; their conditions need not be identical. Equal values may be shown once.",
  "data": [
    {"smiles": "CC1(C)CCC2=C(O1)c1ccccc1C(=O)C2=O", "note": "[Compound 1]", "values": [
      {"measurement": "Partition Coefficient", "setting": "[1]", "value": "2.40 and 2.20"}
    ]},
    {"smiles": "C[C@H]1COC2=C1C(=O)C(=O)c1c2ccc2c1CCCC2(C)C", "note": "[cryptotanshinone]", "values": [
      {"measurement": "absorption rate via oral administration", "setting": "[2]", "value": 2.05, "unit": "%"}
    ]},
    {"smiles": "CC1(C)CCC2=C(O1)c1ccccc1C(=O)C2=O", "note": "[naphthoquinone-based compound]", "values": [
      {"measurement": "Peff", "setting": "[3]; Duodenum", "value": "0.79 ± 0.33 × 10^−5 (cm/s)"},
      {"measurement": "Peff", "setting": "[3]; Ileum", "value": "5.15 ± 1.49 × 10^−5 (cm/s)"},
      {"measurement": "Peff", "setting": "[3]; Jejunum", "value": "2.37 ± 1.17 × 10^−5 (cm/s)"},
      {"measurement": "Peff", "setting": "[3]; Large intestine", "value": "7.82 ± 0.93 × 10^−5 (cm/s)"}
    ]}
  ]
}
